# Results taken from DBAASP.
# Where “and” joins values, the source holds several entries; their conditions need not be identical. Equal entries are not always repeated.
# Assays:
# Test in all cases: ≥ marks a high value that may be exact or a test limit, other limits are often not marked, values filed in µg/mL are converted to µM
# [1] = test system: Pseudomonas aeruginosa NBRC 13275
# [2] = test system: Escherichia coli DH5alpha
# [3] = test system: Proteus vulgaris NBRC 3045
# [4] = test system: Escherichia coli NBRC 3972
# Staphylococcus aureus = test system: Staphylococcus aureus
# [5] = test system: Staphylococcus epidermidis
# [6] = test system: Microsporum canis MW768151
# [7] = test system: Enterococcus faecalis ATCC 29212
# Proteus mirabilis = test system: Proteus mirabilis
# [8] = test system: Staphylococcus haemolyticus
# Staphylococcus sciuri = test system: Staphylococcus sciuri
# [9] = test system: Trichophyton rubrum ATCC 28189
# [10] = test system: Pseudomonas aeruginosa PA006
# [11] = test system: Escherichia coli ATCC 25922
# Staphylococcus simulans = test system: Staphylococcus simulans
# [12] = test system: Staphylococcus pseudintermedius MW767056
# [13] = test system: Pseudomonas aeruginosa PAO1
# [14] = test system: Klebsiella pneumoniae ATCC 13833
# [15] = test system: Pseudomonas aeruginosa ATCC 27853
# Klebsiella pneumoniae = test system: Klebsiella pneumoniae
# [16] = test system: Cryptococcus neoformans B3501
# [17] = test system: Candida albicans ATCC 90028
# Escherichia coli = test system: Escherichia coli
# [18] = test system: Staphylococcus epidermidis ATCC 12228
# [19] = test system: Staphylococcus pseudintermedius
# [20] = test system: Trichophyton mentagrophytes
# [21] = test system: Pseudomonas aeruginosa PA002
# [22] = test system: Staphylococcus cohnii MW767053
# Microsporum canis = test system: Microsporum canis
# [23] = test system: Staphylococcus aureus MTCC 3160
# [24] = test system: Escherichia coli K12 MG1655
# [25] = test system: Stenotrophomonas maltophilia MTCC 1890
# [26] = test system: Klebsiella aerogenes MTCC 111
# [27] = test system: Klebsiella pneumoniae MTCC 7407
# [28] = test system: Alcaligenes faecalis MTCC 1937
# [29] = test system: Alkalihalobacillus alcalophilus MTCC 860
# [30] = test system: Citrobacter freundii MTCC 1658
# [31] = test system: Enterococcus faecalis MTCC 439
# [32] = test system: Staphylococcus haemolyticus MTCC 3383
# [33] = test system: Corynebacterium glutamicum MTCC 2679
# [34] = test system: Citrobacter koseri MTCC 1657
# [35] = test system: Proteus mirabilis MTCC 3158
# [36] = test system: Pseudomonas aeruginosa MTCC 3542
# [37] = test system: Pluralibacter gergoviae MTCC 3826
# [38] = test system: Proteus vulgaris MTCC 1771
# [39] = test system: Bordetella bronchiseptica MTCC 6837
# [40] = test system: Haemophilus influenzae MTCC 621
# [41] = test system: Acinetobacter baumannii MTCC 9829
# [42] = test system: Shigella boydii MTCC 11947
# [43] = test system: Shigella flexneri MTCC 1457
# [44] = test system: Salmonella enterica MTCC 9844
# [45] = test system: Klebsiella oxytoca MTCC 2275
# [46] = test system: Vibrio cholerae MTCC 3904
# [47] = test system: Salmonella enterica subsp. enterica serovar Typhimurium ATCC 14028
# [48] = test system: Bacillus subtilis MTCC 14416
# [49] = test system: Staphylococcus aureus ATCC 43300
# [50] = test system: Staphylococcus aureus MTCC 9542
# Vibrio cholerae = test system: Vibrio cholerae
# Escherichia coli MG1655 = test system: Escherichia coli MG1655
smiles,measurement,setting,value
CC(C)C[C@H](NC(=O)[C@H](CCCCN)NC(=O)CNC(=O)[C@H](CCCCN)NC(=O)[C@H](CC(C)C)NC(=O)[C@H](CCCCN)NC(=O)[C@H](CC(C)C)NC(=O)[C@H](CCCCN)NC(=O)[C@H](C)NC(=O)CNC(=O)[C@H](CC(C)C)NC(=O)[C@H](CCCCN)NC(=O)[C@H](CC(C)C)NC(=O)[C@H](CCCCN)NC(=O)[C@H](C)NC(=O)[C@H](CC(C)C)NC(=O)[C@H](CCCCN)NC(=O)[C@H](CCCCN)NC(=O)[C@@H](N)CCCCN)C(=O)NCC(=O)N[C@@H](C)C(N)=O [KKKLAKLKLGAKLKLKGKLGA],MIC,[1],3.12 µM
same,MIC,[2],25 µM
same,MIC,[3],≥ 100 µM
same,MIC,[4],12.5 µM
same,MIC,Staphylococcus aureus,100 µM
same,MIC,[5],6.25 µM
CC[C@H](C)[C@H](NC(=O)[C@H](Cc1ccccc1)NC(=O)CNC(=O)[C@H](CCCCN)NC(=O)[C@@H](NC(=O)[C@H](Cc1ccccc1)NC(=O)[C@H](CCCCN)NC(=O)[C@H](CCCN=C(N)N)NC(=O)[C@@H](NC(=O)[C@@H](NC(=O)[C@H](CCCN=C(N)N)NC(=O)[C@@H](NC(=O)[C@H](C)NC(=O)[C@H](Cc1c[nH]c2ccccc12)NC(=O)[C@@H](N)CCCCN)C(C)C)[C@@H](C)CC)[C@@H](C)CC)[C@@H](C)CC)C(=O)N[C@@H](CO)C(N)=O [KWAVRIIRKFIKGFIS],MIC,[6],0.51 µM
same,MIC,[7],8.15 µM
same,MIC,Proteus mirabilis,≥ 65.2 µM
same,MIC,[8],≥ 65.2 µM
same,MIC,Staphylococcus sciuri,≥ 130 µM
same,MIC,[9],8 µM
same,MIC,[10],2.04 µM
same,MIC,[11],2.04 µM and 2 µM
same,MIC,Staphylococcus simulans,≥ 32.6 µM
same,MIC,[12],≥ 130 µM
same,MIC,[13],4.08 µM
same,MIC,[14],1 µM
same,MIC,[15],4.08 µM and 1.67 µM and 4 µM
same,MIC,Klebsiella pneumoniae,5.77 µM
same,MIC,[16],2 µM
same,MIC,[17],1.67 µM
same,MIC,Escherichia coli,1.44 µM and 2.88 µM
same,MIC,[18],1 µM
same,MIC,[19],≥ 32.6 µM
same,MIC,[20],0.51 µM
same,MIC,[21],8.15 µM
same,MIC,[22],16.3 µM
same,MIC,Microsporum canis,1.44 µM
CC[C@H](C)[C@H](NC(=O)[C@H](C)NC(=O)[C@@H]1CCCN1C(=O)[C@@H]1CCCN1C(=O)[C@H](CC(C)C)NC(=O)[C@H](Cc1cnc[nH]1)NC(=O)[C@H](CCCCN)NC(=O)[C@H](C)NC(=O)[C@@H](NC(=O)CNC(=O)[C@H](CCCCN)NC(=O)[C@H](C)NC(=O)[C@@H](NC(=O)[C@@H](N)CCC(=O)O)[C@@H](C)O)C(C)C)C(=O)N[C@@H](C)C(=O)O [ETAKGVAKHLPPAIA],MIC,[23],≥ 85.2 µM
same,MIC,[24],≥ 85.2 µM
same,MIC,[25],≥ 85.2 µM
same,MIC,[26],≥ 85.2 µM
same,MIC,[27],≥ 85.2 µM
same,MIC,[28],≥ 85.2 µM
same,MIC,[29],≥ 85.2 µM
same,MIC,[30],≥ 85.2 µM
same,MIC,[31],≥ 85.2 µM
same,MIC,[32],≥ 85.2 µM
same,MIC,[33],≥ 85.2 µM
same,MIC,[34],≥ 85.2 µM
same,MIC,[35],≥ 85.2 µM
same,MIC,[36],≥ 85.2 µM
same,MIC,[37],≥ 85.2 µM
same,MIC,[38],≥ 85.2 µM
same,MIC,[39],≥ 85.2 µM
same,MIC,[40],≥ 85.2 µM
same,MIC,[41],≥ 85.2 µM
same,MIC,[42],≥ 85.2 µM
same,MIC,[43],≥ 85.2 µM
same,MIC,[44],≥ 85.2 µM
same,MIC,[45],≥ 85.2 µM
same,MIC,[46],≥ 85.2 µM
same,MIC,[47],> 85.2 µM
CC[C@H](C)[C@H](N)C(=O)N[C@@H](C)C(=O)NCC(=O)N[C@@H](CC(C)C)C(=O)N[C@@H](C)C(=O)N[C@@H](C)C(=O)N[C@@H](CC(N)=O)C(=O)N[C@@H](Cc1ccccc1)C(=O)N[C@@H](CC(C)C)C(=O)N1CCC[C@H]1C(=O)N[C@@H](CCC(N)=O)C(=O)N[C@H](C(=O)N[C@@H](CC(C)C)C(=O)N[C@@H](CS)C(=O)N[C@@H](CCCCN)C(=O)N[C@H](C(=O)N[C@@H](C)C(=O)N[C@@H](CCCN=C(N)N)C(=O)N[C@@H](CCCCN)C(N)=O)[C@@H](C)CC)[C@@H](C)CC [IAGLAANFLPQILCKIARK],MIC,[7],24.5 µM
same,MIC,[48],24.5 µM
same,MIC,[15],> 49 µM
same,MIC,[49],24.5 µM
same,MIC,[50],24.5 µM
same,MIC,Vibrio cholerae,24.5 µM
same,MIC,Escherichia coli MG1655,12.3 µM
